Data from PMC9656482, “In Vitro and In Vivo Biological Activity of Ruthenium 1,10-Phenanthroline-5,6-dione Arene Complexes” (International Journal of Molecular Sciences, 2022).

Experiments:
[1] = Stability in DMSO-d6-D2O solution by 1H NMR; assay type: physicochemical; details: DMSO-d6-D2O 3:7 (v/v), 110 mM chloride, 48 h
Protocol: To evaluate the stability of complexes in a cell culture medium, powdered complexes were first solubilized in DMSO and then immediately in DMEM, in order to guarantee that no more than 0.1% (v/v) DMSO was present in the medium. […] In addition, the stability of the complexes in solution was investigated by ^1H NMR spectroscopy. The ruthenium complexes were dissolved in DMSO-d6-D2O, in a 3:7 ratio (v/v) with a 110 mM chloride concentration, and the ^1H NMR spectra was recorded immediately and after 48 h. […] This observation is in agreement with the M–Cl aquation processes described for several metallic compounds, such as cisplatin [23]. After 48 h, the ^1H NMR spectrum of JHOR10 was unchanged.
The stability of complexes was evaluated in DMEM (Dulbecco’s modified Eagle’s medium). Powdered complexes JHOR10 and JHOR11 were solubilized in DMSO and then immediately diluted in DMEM without phenol red (Thermo Fisher Scientific, Waltham, MA, USA) to a final concentration of 100 µM, assuring that the final concentration of DMSO was not higher than 0.1% (v/v). The UV-visible spectrum was measured after an incubation at 37 °C for 24 or 48 h (DMEM) in a wavelength range between 260 and 800 nm, using a quartz cuvette with 1 cm path length. A total of 2 mg of each compound was dissolved in DMSOd6-D2O 3:7 (v/v) 110 mM chloride concentration (NaCl), and the ^1H NMR were recorded at 0 h and 48 h on a Bruker Avance III 400 MHz.

A2780 cells [2] = test: Apoptosis, Annexin V-Alexa Fluor 488/propidium iodide double staining; assay type: cell-based, human; details: A2780, 48 h, IC50 of the complex
Protocol: To understand if the loss of cell viability of an A2780 cell incubated with JHOR11 is due to cell apoptosis, cells were incubated with the IC50 of the complex and then double-stained with Annexin V, conjugated with AlexaFluor 488 and with propidium iodide (PI) to discriminate between live cells (unstained), cells in initial apoptosis (green-stained cells), cells in late apoptosis (double-stained cells) and cells in necrosis (red-stained cells).
The double staining of the A2780 cells incubated with JHOR11 for apoptosis evaluation followed procedures previously described. Briefly, A2780 cells were seeded on 6-well plates in a density of 2 × 10^5 cells/well, and incubated for 48 h with IC50 JHOR11, 0.1% (v/v) DMSO as vector control, and 3.5 µM cisplatin as positive control. Cells were then detached from the wells and double stained using the dead cell apoptosis kits with Annexin V for flow cytometry (Thermo Fisher Scientific) according to manufacturer’s instructions. The percentage of live cells (unstained), cells in initial apoptosis (stained with annexin V-Alexa Fluor 488), cells in late apoptosis (double stained with annexin V-Alexa Fluor 488 and propidium iodide) or cells in necrosis (stained with propidium iodide) was quantified using an Attune acoustic focusing flow cytometer and respective software (Thermo Fisher Scientific).

A2780 cells [3] = test: Production of reactive oxygen species (H2DCF-DA); assay type: cell-based, human; details: A2780, 48 h, IC50 of JHOR11
Protocol: Since the cytotoxicity of Ru(II) complexes is commonly accompanied by the induction of reactive oxygen species (ROS), the ROS concentration was quantified in A2780 cells exposed for 48 h to IC50 concentration of JHOR11, using DMSO 0.1% (v/v) as a vehicle control, and 3.5 µM cisplatin and 25 µM hydrogen peroxide (H2O2) as positive controls. The incubation with the dye 2′,7′-dichlorodihydrofluorescein diacetate (H2DCF-DA) that, in the presence of peroxides, emits green fluorescence after oxidation to 2′,7′-dichlorofluorescein (DCF), followed by fluorescence quantification by flow cytometry, allowed us to infer the induction of ROS.
The production of ROS was evaluated using the dye 2′,7′-dichlorodihydrofluorescein diacetate (H2DCF-DA, ThermoFisher Scientific) according to previously described procedures. […] The fluorescence was quantified in an Attune acoustic focusing cytometer and respective software (Thermo Fisher Scientific) and normalized to the fluorescence of vector control sample.

A2780 cells [4] = test: Cell cycle analysis (PI staining); assay type: cell-based, human; details: A2780 synchronized with thymidine; IC50 of JHOR11 or 0.1 µM doxorubicin; 5-32 h, relative to DMSO
Protocol: To understand if the complex also presents a cytostatic effect, the cell cycle of A2780 cells was analyzed by DNA staining with PI, after double synchronization with thymidine at the S phase.
The cell cycle analysis was performed by DNA staining with PI according to procedures previously described with few modifications. A2780 cells were seeded in 6-well plates in a cell density of 4 × 10^5 cells/well and the cell cycle was synchronized in the S-phase by double blocking with 2 mM thymidine. […] After 5 h, 9 h, 24 h or 32 h, cells were detached, fixed with 80% (v/v) ethanol, incubated with 50 mg/mL RNase A (NZYtech, Lisbon, Portugal) and stained with […] PI (Thermo Fisher Scientific). The fluorescence of each sample was analyzed in an Attune acoustic focusing cytometer and respective software (Thermo Fisher Scientific).

[5] = tested on: BAX and BCL-2 protein expression in A2780 cells; details: A2780, 48 h, IC50 of JHOR11, normalized to DMSO control = 1
Protocol: The ratio between BAX and BCL-2 protein expression indicates the level of susceptibility of the cell to the intrinsic apoptotic pathway [26, 27, 28]. The BAX and BCL-2 protein expression was quantified by Western blot analysis to calculate the apoptotic index of cells after 48 h incubation with IC50 of JHOR11, using the quantification of β-actin as the internal control and 0.1% (v/v) DMSO as the vehicle control (Figure 4).
The apoptotic index was determined by quantification of BAX and BCL-2 protein expression by Western blot, as previously described [18]. Briefly, 4 × 10^6 cells were seeded on T-flasks with 25 cm^2 for 24 h and then the medium was replaced by a fresh medium supplemented with IC50 JHOR11, 0.1% (v/v) DMSO (vector control) or 0.1 µM doxorubicin (positive control). After 48 h incubation, cells were detached with a cell scraper and BAX, BCL-2 and β-actin proteins were quantified in a PVDF membrane [18]. The apoptotic ratio BAX/BCL-2 was calculated after normalization of the BAX and BCL-2 band intensity with respective β-actin band intensity and to the values of the DMSO-treated sample, measured using ImageJ2 software [41].

## Cc1ccc(C(C)C)cc1.F[P-](F)(F)(F)(F)F.O=C1C(=O)c2cccnc2-c2ncccc21.[Cl][Ru+] [JHOR11]
[1]
  stability in solution by 1H NMR after 48 h: the majority of the complex remained intact
A2780 cells [2]
  percentage of apoptotic cells: 3%
A2780 cells [3]
  increase in intracellular ROS relative to vector control: 1.72 ± 0.4 times
A2780 cells [4]
  cell cycle effect: slight increase in cells in G2/M phase
[5]
  apoptotic index (BAX/BCL-2 ratio): lower than 1
